Results published in patent publication US4654348A, “Pyrazolo[4,3-d]pyrimidine derivative, process for its production, antihyperlipidemic agent containing it, its intermediate, and process for the production of the intermediate” (Nissan Chemical Industries Ltd., priority 1984, dated 1987).

Test system: emulsion-induced hyperlipidemic rats
Test: Test 1: antihyperlipidemic activity in emulsion-induced hyperlipidemic rats (serum Chol, HDL-Chol, liver weight)
Assay type: in vivo, male S.D. rats
Settings: 3 days, vs control; for inhibition in vivo at 300 mg/kg / change in vivo at 300 mg/kg: Rattus norvegicus, po, 72 h, 300 mg/kg/day via stomach tube; for inhibition in vivo at 300 mg/kg: read-out: Reduction rate of serum Chol.; for change in vivo at 300 mg/kg: read-out: Increase rate of serum HDL-Chol; for Degree of hepatomegaly (change rate of the liver weight): liver weight per 100 g body weight, 300 mg/kg/day
Protocol: The antihyperlipidemic activity in emulsion-induced hyperlipidemic rats:
Male S.D. rats weighing 80-90 g (4 weeks old) were used. They were divided into groups of 5 to 6 rats each. The test compounds suspended in 0.5% CMC-Na(carboxymethyl cellulose sodium salt) were given to the rats in a daily dose of 4 ml/kg (i.e. 300 mg/kg of the test compounds) via stomach tube every 10:00 a.m. After 30 min., lipids emulsion having the following composition was orally given to the rats in an amount of 2.5 ml per rat.
Cholic acid sodium salt 10.0 g
During the experimental period of 3 days, the rats were fed on a standard commercial diet and water ad libitum. […] The total cholesterol and HDL cholesterol were measured.
The weight of the liver was measured. To the control group, only the aqueous CMC-Na solution and the lipids emulsion were given.
The fractionation of lipoproteins was conducted by a dextran sulfate-MgCl2 precipitation method.
Cholesterol in serum was measured by means of a cholesterol measuring kit (Cholesterol C-Test Wako, manufactured by Wako Junyaku Co., Ltd.), and cholesterol in HDL was measured by means of NC Hi-Set, manufactured by Nippon Chemiphar Co., Ltd.
Further, the reduction rate of Chol was calculated by the following equation. [formula] where A is the amount of serum Chol (mg/dl) of the control group, and B is the amount of serum Chol (mg/dl) of the group to which the therapeutic agent was administered.
Likewise, the increase rate of HDL-Chol was calculated by the following equation. [formula] where C is the amount of serum HDL-Chol (mg/dl) of the control group, and D is the amount of serum HDL-Chol (mg/dl) of the group to which the therapeutic agent was administered.
The degree of hepatomegaly (i.e. the change rate of the liver weight) was calculated by the following equation. [formula] where E is the liver weight (g) per 100 g of the body weight of the control group, and F is the liver weight (g) per 100 g of the body weight of the group to which the therapeutic agent was administered.

| Compound | inhibition in vivo at 300 mg/kg | change in vivo at 300 mg/kg | Degree of hepatomegaly (change rate of the liver weight) |
| --- | --- | --- | --- |
| CCCCCCCCCCCCOc1c2ncnc(SCC(=O)OCC)c2nn1C [Example 2, 2-Methyl-3-n-dodecyloxy-7-ethoxycarbonylmethylthio-pyrazolo[4,3-d]pyrimidine] | 36% |  |  |
| CCCCCCCCCCCCCCOc1c2ncnc(SCC(=O)OCC)c2nn1C [Example 3] | 41% |  |  |
| CCCCCCCCCCCCCCCOc1c2ncnc(SCC(=O)OCC)c2nn1C [Example 4, 2-Methyl-3-n-pentadecyloxy-7-ethoxycarbonylmethylthio-pyrazolo[4,3-d]pyrimidine] | 48% | 20% | +2% |
| CCCCCCCCCCCCCCCCCOc1c2ncnc(SCC(=O)OCC)c2nn1C [Example 5] | 21% | 38% | +3% |
| CCCCCCCCCCCCCCCCCCOc1c2ncnc(SCC(=O)OCC)c2nn1C [Example 6, 2-Methyl-3-n-octadecyloxy-7-ethoxycarbonylmethylthio-pyrazolo[4,3-d]pyrimidine] | 31% | 9% | -1% |
| CCCCCCCCCCCCCCCCCCCCOc1c2ncnc(SCC(=O)OCC)c2nn1C [Example 8, 2-Methyl-3-n-eicosanyloxy-7-ethoxycarbonylmethylthio-pyrazolo[4,3-d]pyrimidine] | 37% |  |  |
| CCCCCCCCCCCCCCCCOc1c2ncnc(SCC(=O)OC)c2nn1C [Example 15, 2-Methyl-3-n-hexadecyloxy-7-methoxycarbonylmethylthio-pyrazolo[4,3-d]pyrimidine] | 53% |  |  |
| CCCCCCCCCCCCCCCCOc1c2ncnc(SCC(=O)OC(C)C)c2nn1C [Example 16, 2-Methyl-3-n-hexadecyloxy-7-isopropoxycarbonylmethylthio-pyrazolo[4,3-d]pyrimidine] | 26% |  |  |
| CCCCCCCCCCCCCCCCOc1c2ncnc(SCCCC(=O)OCC)c2nn1C [Example 17, 2-Methyl-3-n-hexadecyloxy-7-(3-ethoxycarbonylpropylthio)-pyrazolo[4,3-d]pyrimidine] | 49% |  | +5% |
| CCCCCCCCCCCCCCCCOc1c2ncnc(SCC(=O)c3ccccc3)c2nn1C [Example 18, 2-Methyl-3-n-hexadecyloxy-7-benzoylmethylthio-pyrazolo[4,3-d]pyrimidine] | 35% | 42% | +4% |
| CCCCCCCCCCCCCCCCOc1c2ncnc(SCc3ccccc3)c2nn1C [Example 19, 2-Methyl-3-n-hexadecyloxy-7-benzylthio-pyrazolo[4,3-d]pyrimidine] | 42% | 31% | +8% |
| CCCCCCCCCCCCCCCCOc1c2ncnc(SCc3ccc(Cl)c(Cl)c3)c2nn1C [Example 20, 2-Methyl-3-n-hexadecyloxy-7-(3,4-dichlorophenylmethylthio)-pyrazolo[4,3-d]pyrimidine] | 19% |  |  |
| CCCCCCCCCCCCCCCCOc1c2ncnc(SCCc3ccccc3)c2nn1C [Example 21, 2-Methyl-3-n-hexadecyloxy-7-phenethylthio-pyrazolo[d]pyrimidine] | 10% |  |  |
| C=CCSc1ncnc2c(OCCCCCCCCCCCCCCCC)n(C)nc12 [Example 22] | 11% |  |  |
| CCCCCCCCCCCCCCCCOc1c2ncnc(SCCCCCC)c2nn1C [Example 23, 2-Methyl-3-n-hexadecyloxy-7-n-hexylthiopyrazolo[4,3-d]pyrimidine] | 39% | 30% | 0% |
| CCCCCCCCCCCCCCCCOc1c2ncnc(SCCCCCCCCCCCCCCCC)c2nn1C [Example 24, 2-Methyl-3-n-hexadecyloxy-7-n-hexadecylthio-pyrazolo[4,3-d]pyrimidine] | 41% |  |  |
| CCCCCCCCCCCCCCCCOc1c2ncnc(SC3C(=O)OCC3C)c2nn1C (stereo not drawn) [Example 25, 2-Methyl-3-n-hexadecyloxy-7-[4-(3-methyl-5-oxotetrahydrofuranyl)thio]-pyrazolo[4,3-d]pyrimidine] | 11% |  |  |
| CCCCCCCCCCCCCCCCOc1c2ncnc(SC(C)(C)C(=O)OCC)c2nn1C [Example 26, 2-Methyl-3-n-hexadecyloxy-7-(1-ethoxycarbonyl-1-methyl-ethylthio)pyrazolo [4,3-d]pyrimidine] | 16% |  |  |
| CCCCCCCCOc1c2ncnc(SC(C)(C)C(=O)OCC)c2nn1C [Example 27, 2-Methyl-3-n-octyloxy-7-(1-ethoxycarbonyl1-methyl-ethylthio)-pyrazolo[4,3-d]pyrimidine] | 16% |  |  |
| CCCCCCCCCCCCOc1c2ncnc(SC(C)(C)C(=O)OCC)c2nn1C [Example 28, 2-Methyl-3-n-dodecyloxy-7-(1-ethoxycarbonyl-1-methyl-ethylthio)-pyrazolo[4,3-d]pyrimidine] | 36% |  |  |
| CCCCCCCCCCCCCCCCCCCCOc1c2ncnc(SC(C)(C)C(=O)OCC)c2nn1C [Example 29, 2-Methyl-3-n-eicosyloxy-7-(1-ethoxycarbonyl-1-methyl-ethylthio)-pyrazolo[4,3-d]pyrimidine] | 16% |  |  |
| CCOC(=O)C(C)(C)Sc1ncnc2c(OCCO)n(C)nc12 [Example 30, 2-Methyl-3-(2-hydroxyethyloxy)-7-(1-ethoxycarbonyl-1-methyl-ethylthio) pyrazolo[4,3-d]pyrimidine] | 28% |  |  |
| CCCCCCCOc1c2ncnc(SCC(=O)OCC)c2nn1-c1ccccc1 [Example 31, 2-Phenyl-3-n-heptyloxy-7-ethoxycarbonylmethylthio-pyrazolo[4,3-d]pyrimidine] | 51% |  |  |
| CCCCCCCCCCCCOc1c2ncnc(SC(C)(C)C(=O)OCC)c2nn1-c1ccccc1 [Example 32, 2-Phenyl-3-n-dodecyloxy-7-(1-ethoxycarbonyl-1-methylethylthio)-pyrazolo[4,3-d]pyrimidine] | 50% |  |  |
| CCCCCCCCCCCCCCCCOc1c2ncnc(SCC(=O)OCCCC)c2nn1C [Example 33, 2-Methyl-3-n-hexadecyloxy-7-n-butoxycarbonylmethylthio-pyrazolo[4,3-d]pyrimidine] | 39% |  |  |
| CCOC(=O)CSc1ncnc2c(OC3CCC(C4CCCCC4)CC3)n(C)nc12 (stereo not drawn) [Example 34, 2-Methyl-3-(4-cyclohexyl-cyclohexyloxy)-7-ethoxycarbonylmethylthio-pyrazolo[4,3-d]pyrimidine] | 12% |  |  |
| CCOC(=O)CSc1ncnc2c(OC3CCC(C)CC3)n(C)nc12 (stereo not drawn) [Example 35, 2-Methyl-3-(4-methylcyclohexyloxy)-7-ethoxycarbonylmethylthio-pyrazolo[4,3-d]pyrimidine] | 13% |  |  |
| CCOC(=O)CSc1ncnc2c(OCCOCc3ccccc3)n(C)nc12 [Example 36, 2-Methyl-3-(2-benzyloxyethoxy)-7-ethoxycarbonylmethylthio-pyrazolo[4,3-d]pyrimidine] | 44% |  |  |
| CCOC(=O)CSc1ncnc2c(OCCOCc3ccc(CC)cc3)n(C)nc12 [Example 37, 2-Methyl-3-[2-(4-ethylbenzyloxy)ethoxy]7-ethoxycarbonylmethylthio-pyrazolo[4,3-d]pyrimidine] | 37% |  |  |
